From patent US6610310B2, “Polyanionic polymers as adjuvants for mucosal immunization” (priority 1996, dated 2003) come the findings set out here.

Holding throughout (set-up): species or system mice
What all share (conditions): mouse, in vivo

In experiment [1] the test system is influenza virus, strain MRC-11.
Experiment [2] has as its system Newcastle Disease Virus (NDV) strain Lasota.
In experiment [3] the test system is influenza virus strain A/Texas.

For the substance Cholera toxin subunit B [CTB], the “anti-NDV Ig-producing cells/10^6 cells 3 weeks following immunization, mean; IgA in the lungs” value in experiment [1] turned out to be 82 cells/10^6 cells. Also, in experiment [2], the “anti-NDV Ig-producing cells/10^6 cells 3 weeks following immunization, mean; IgA in the spleen” value is reported as 84 cells/10^6 cells; the “anti-NDV Ig-producing cells/10^6 cells 3 weeks following immunization, mean; IgG in the lungs” value is given as 10 cells/10^6 cells; the “anti-NDV Ig-producing cells/10^6 cells 3 weeks following immunization, mean; IgG in the spleen” value was found to be 8 cells/10^6 cells; the “anti-NDV Ig-producing cells/10^6 cells 6 weeks following immunization, mean; IgA in the lungs” value worked out at 23 cells/10^6 cells. In experiment [3], the “specific Ig-producing cells/10^6 cells 3 weeks following first immunization, mean; IgA in the lungs” value worked out at 961 cells/10^6 cells.
